{
  "source": "patent US20220161456A1",
  "about": "“S[…] PRESERVATIVE COMPOSITION COMPRISING POLYMERIC BETAINE AND CARBAMATE” (Troy Corporation, priority 2019, published 2022)",
  "key": {"[1]": {"tested_on": "Penicillium funiculosum (ATCC #11797)", "assay": "EUCAST 96-well plate fungal growth inhibition (MIC)", "assay_type": "cell-based", "set-up": "key to growth of Penicillium funiculosum in 96-well plates: (+) in each block indicates growth; (−) indicates no growth, i.e., the inhibitor was effective", "settings": "for MIC: Penicillium funiculosum ATCC 11797, 3 days at 35° C.", "method": "(§1) (A) 0.17 g of 60% DPAB aqueous solution (ProTek® PBT or Polymeric Betaine EP or Polymeric Betaine Technical Grade Active Ingredient Wood Preservative, Troy Chemical Corporation, Newark, N.J.) was diluted in 9.83 g ethanol by stirring to form a concentrate containing 1% DPAB.\n(§2) (B) 0.25 g of 40% IPBC solvent solution (Polyphase® AF-1, Troy Chemical Corporation, Newark, N.J.) was diluted in 9.75 g ethanol by stirring to form a concentrate containing 1% IPBC.\n(§3) (C) 21.04 g of 60% DPAB aqueous solution (ProTek® PBT or Polymeric Betaine EP or Polymeric Betaine Technical Grade Active Ingredient Wood Preservative, Troy Chemical Corporation, Newark, N.J.), 6.25 g of 40% IPBC solvent solution (Polyphase AF-1, Troy Chemical Corporation, Newark, N.J.) and 22.74 g of ethanol were mixed and stirred. The resulting concentrate contained 25% polymeric betaine and 5% IPBC. The weight ratio of polymeric betaine to IPBC was 5:1. 0.33 g of this IPBC/polymeric betaine concentrate was diluted in 9.67 g of ethanol to form a use-dilution containing about 0.83% DPAB and 0.17% IPBC.\n(§4) Solutions prepared as described above were tested in 96-well plates for their ability to inhibit fungal growth. The solutions were tested according to the EUCAST methodology as described in Rodriguez-Tudela et al. 2006 “Antifungal susceptibility testing in Aspergillus spp. according to EUCAST methodology,” the contents of which are incorporated by reference herein. The solutions were checked for inhibition against fungal organisms Aspergillus niger (ATCC #6275), Aureobasidium pullulans (ATCC #9348), Penicillium funiculosum (ATCC #11797) and Trichoderma pseudokoningii (ATCC #26801). This method is described below:\n(§5) (1) Prepared preservative test wells by adding 2 microliters of each 1% preservative solution formulation to 198 microliters of 2xRPMI-MOPS-2% Glucose in each column “1” in duplicate.\n(§6) (2) Added 100 microliters of 2xRPMI-MOPS-2% Glucose to the remaining columns.\n(§7) (3) Performed 2-fold dilutions down the columns to column “12”.\n(§8) (4) Prepared suspension of microorganisms from a 3-5 day old PDA slants by flooding slant with 1 mL deionized water and 0.1% Tween-20.\n(§9) (5) Suspension strength was determined via hemocytometer then adjusted to 1×10^6 spores/mL with sterile deionized water.\n(§10) (6) Added 100 microliters of the microorganism suspension to all wells except for sterility (−) controls containing test media. The water used to prepare the fungal suspensions was added to sterility (−) control wells.\n(§11) (7) The inoculated 96-well plates were incubated for 3 days at 35° C.\n(8) After incubation, fungal growth was evaluated by visual growth in test wells. Minimum inhibitory concentration (MIC) is recorded in ppm and defined as the lowest concentration of fungicide that produces no visual changes in turbidity in the test wells.\nMinimal inhibitory concentration of the composition of this invention (mixture of DPAB and IPBC) are analyzed using the following equation:\n(§12) MCA=Concentration of compound A in parts per million, acting alone, which prevents fungal growth at the reference point\n(§13) MCA′=Concentration of compound A in parts per million, in the mixture, which prevents fungal growth at the reference point\n(§14) MCB=Concentration of compound B in parts per million, acting alone, which prevents fungal growth at the reference point\n(§15) MCB′=Concentration of compound B in parts per million, in the mixture, which prevents fungal growth at the reference point\n(§16) When SI is greater than 2, antagonism is indicated. […] When SI is between 0.5 and 2, the action of biocides is additive."}, "[2]": {"tested_on": "Aureobasidium pullulans (ATCC #9348)", "assay": "EUCAST 96-well plate fungal growth inhibition (MIC)", "assay_type": "cell-based", "set-up": "key to growth of Aureobasidium pullulans in 96-well plates: (+) in each block indicates growth; (−) indicates no growth, i.e., the inhibitor was effective", "settings": "for MIC: Aureobasidium pullulans ATCC 9348, 3 days at 35° C.", "method": "as §1, §2, §3, §4, §5, §6, §7, §8, §9, §10, §11\n(8) After incubation, fungal growth was evaluated by visual growth in test wells. Minimum inhibitory concentration (MIC) is recorded in ppm and defined as the lowest concentration of fungicide that produces no visual changes in turbidity in the test wells. (+) in each block indicates growth and (−) indicates no growth, i.e., the inhibitor was effective.\n(9) The experiment is only considered valid if growth is observed in the positive (+) control wells and no growth is observed in the negative control wells.\nIn order to show more directly the possible synergy in the invention, the results are presented by applying the Synergy Index (S.I.). Minimal inhibitory concentration of the composition of this invention (mixture of DPAB and IPBC) are analyzed using the following equation:\nas §12, §13, §14, §15, §16"}},
  "data": [
    {"compound": "didecyl bis(hydroxyethyl) ammonium borate [DPAB]", "values": [
      {"measurement": "MIC", "setting": "[1]", "result": 6.25, "unit": "ppm"},
      {"measurement": "growth of Penicillium funiculosum in 96-well plates", "setting": "[1]; well 1, concentration 50.00", "result": "−"},
      {"measurement": "growth of Penicillium funiculosum in 96-well plates", "setting": "[1]; well 2, concentration 25.00", "result": "−"},
      {"measurement": "growth of Penicillium funiculosum in 96-well plates", "setting": "[1]; well 3, concentration 12.50", "result": "−"},
      {"measurement": "growth of Penicillium funiculosum in 96-well plates", "setting": "[1]; well 4, concentration 6.25", "result": "−"},
      {"measurement": "growth of Penicillium funiculosum in 96-well plates", "setting": "[1]; well 5, concentration 3.13", "result": "+"},
      {"measurement": "growth of Penicillium funiculosum in 96-well plates", "setting": "[1]; well 6, concentration 1.56", "result": "+"},
      {"measurement": "growth of Penicillium funiculosum in 96-well plates", "setting": "[1]; well 7, concentration 0.78", "result": "+"},
      {"measurement": "growth of Penicillium funiculosum in 96-well plates", "setting": "[1]; well 8, concentration 0.39", "result": "+"},
      {"measurement": "growth of Penicillium funiculosum in 96-well plates", "setting": "[1]; well 9, concentration 0.20", "result": "+"},
      {"measurement": "growth of Penicillium funiculosum in 96-well plates", "setting": "[1]; well 10, concentration 0.10", "result": "+"},
      {"measurement": "growth of Penicillium funiculosum in 96-well plates", "setting": "[1]; well 11, concentration 0.05", "result": "+"},
      {"measurement": "growth of Penicillium funiculosum in 96-well plates", "setting": "[1]; well 12, concentration 0.02", "result": "+"},
      {"measurement": "MIC", "setting": "[2]", "result": 12.5, "unit": "ppm"},
      {"measurement": "growth of Aureobasidium pullulans in 96-well plates", "setting": "[2]; well 1, 50.00 ppm active", "result": "−"},
      {"measurement": "growth of Aureobasidium pullulans in 96-well plates", "setting": "[2]; well 2, 25.00 ppm active", "result": "−"},
      {"measurement": "growth of Aureobasidium pullulans in 96-well plates", "setting": "[2]; well 3, 12.50 ppm active", "result": "−"},
      {"measurement": "growth of Aureobasidium pullulans in 96-well plates", "setting": "[2]; well 4, 6.25 ppm active", "result": "+"},
      {"measurement": "growth of Aureobasidium pullulans in 96-well plates", "setting": "[2]; well 5, 3.13 ppm active", "result": "+"},
      {"measurement": "growth of Aureobasidium pullulans in 96-well plates", "setting": "[2]; well 6, 1.56 ppm active", "result": "+"},
      {"measurement": "growth of Aureobasidium pullulans in 96-well plates", "setting": "[2]; well 7, 0.78 ppm active", "result": "+"},
      {"measurement": "growth of Aureobasidium pullulans in 96-well plates", "setting": "[2]; well 8, 0.39 ppm active", "result": "+"},
      {"measurement": "growth of Aureobasidium pullulans in 96-well plates", "setting": "[2]; well 9, 0.20 ppm active", "result": "+"},
      {"measurement": "growth of Aureobasidium pullulans in 96-well plates", "setting": "[2]; well 10, 0.10 ppm active", "result": "+"},
      {"measurement": "growth of Aureobasidium pullulans in 96-well plates", "setting": "[2]; well 11, 0.05 ppm active", "result": "+"},
      {"measurement": "growth of Aureobasidium pullulans in 96-well plates", "setting": "[2]; well 12, 0.02 ppm active", "result": "+"}
    ]},
    {"compound": "CCCCNC(=O)OCC#CI", "note": "[IPBC, 3-iodo-2-propynyl butyl carbamate]", "values": [
      {"measurement": "MIC", "setting": "[1]", "result": 0.78, "unit": "ppm"},
      {"measurement": "growth of Penicillium funiculosum in 96-well plates", "setting": "[1]; well 1, concentration 50.00", "result": "−"},
      {"measurement": "growth of Penicillium funiculosum in 96-well plates", "setting": "[1]; well 2, concentration 25.00", "result": "−"},
      {"measurement": "growth of Penicillium funiculosum in 96-well plates", "setting": "[1]; well 3, concentration 12.50", "result": "−"},
      {"measurement": "growth of Penicillium funiculosum in 96-well plates", "setting": "[1]; well 4, concentration 6.25", "result": "−"},
      {"measurement": "growth of Penicillium funiculosum in 96-well plates", "setting": "[1]; well 5, concentration 3.13", "result": "−"},
      {"measurement": "growth of Penicillium funiculosum in 96-well plates", "setting": "[1]; well 6, concentration 1.56", "result": "−"},
      {"measurement": "growth of Penicillium funiculosum in 96-well plates", "setting": "[1]; well 7, concentration 0.78", "result": "−"},
      {"measurement": "growth of Penicillium funiculosum in 96-well plates", "setting": "[1]; well 8, concentration 0.39", "result": "+"},
      {"measurement": "growth of Penicillium funiculosum in 96-well plates", "setting": "[1]; well 9, concentration 0.20", "result": "+"},
      {"measurement": "growth of Penicillium funiculosum in 96-well plates", "setting": "[1]; well 11, concentration 0.05", "result": "+"},
      {"measurement": "growth of Penicillium funiculosum in 96-well plates", "setting": "[1]; well 12, concentration 0.02", "result": "+"},
      {"measurement": "MIC", "setting": "[2]", "result": 25.00, "unit": "ppm"},
      {"measurement": "growth of Aureobasidium pullulans in 96-well plates", "setting": "[2]; well 1, 50.00 ppm active", "result": "−"},
      {"measurement": "growth of Aureobasidium pullulans in 96-well plates", "setting": "[2]; well 2, 25.00 ppm active", "result": "−"},
      {"measurement": "growth of Aureobasidium pullulans in 96-well plates", "setting": "[2]; well 3, 12.50 ppm active", "result": "+"},
      {"measurement": "growth of Aureobasidium pullulans in 96-well plates", "setting": "[2]; well 4, 6.25 ppm active", "result": "+"},
      {"measurement": "growth of Aureobasidium pullulans in 96-well plates", "setting": "[2]; well 5, 3.13 ppm active", "result": "+"},
      {"measurement": "growth of Aureobasidium pullulans in 96-well plates", "setting": "[2]; well 6, 1.56 ppm active", "result": "+"},
      {"measurement": "growth of Aureobasidium pullulans in 96-well plates", "setting": "[2]; well 7, 0.78 ppm active", "result": "+"},
      {"measurement": "growth of Aureobasidium pullulans in 96-well plates", "setting": "[2]; well 8, 0.39 ppm active", "result": "+"},
      {"measurement": "growth of Aureobasidium pullulans in 96-well plates", "setting": "[2]; well 9, 0.20 ppm active", "result": "+"},
      {"measurement": "growth of Aureobasidium pullulans in 96-well plates", "setting": "[2]; well 10, 0.10 ppm active", "result": "+"},
      {"measurement": "growth of Aureobasidium pullulans in 96-well plates", "setting": "[2]; well 11, 0.05 ppm active", "result": "+"},
      {"measurement": "growth of Aureobasidium pullulans in 96-well plates", "setting": "[2]; well 12, 0.02 ppm active", "result": "+"}
    ]}
  ]
}
